Experimental data as given in patent US5710150A, “Benzazepine derivative, pharmaceutical composition thereof, and intermediate thereof” (Yamanouchi Pharmaceutical Co., Ltd., priority 1993, dated 1998).
Where a name gives a salt, the structure may show the parent alone. Read-outs that look alike come from different tables or passages of the source.

Legend:
[1] = biological target: T1, arginine vasopressin V1 receptor (Rattus norvegicus, UniProt P30560); assay: V1 receptor binding assay ([3H]-Arg-vasopressin, rat liver membrane)
T1 construct: A rat liver membrane sample was prepared; from tissue; host or cells: rat liver membranes
T1 sequence (P30560 whole entry): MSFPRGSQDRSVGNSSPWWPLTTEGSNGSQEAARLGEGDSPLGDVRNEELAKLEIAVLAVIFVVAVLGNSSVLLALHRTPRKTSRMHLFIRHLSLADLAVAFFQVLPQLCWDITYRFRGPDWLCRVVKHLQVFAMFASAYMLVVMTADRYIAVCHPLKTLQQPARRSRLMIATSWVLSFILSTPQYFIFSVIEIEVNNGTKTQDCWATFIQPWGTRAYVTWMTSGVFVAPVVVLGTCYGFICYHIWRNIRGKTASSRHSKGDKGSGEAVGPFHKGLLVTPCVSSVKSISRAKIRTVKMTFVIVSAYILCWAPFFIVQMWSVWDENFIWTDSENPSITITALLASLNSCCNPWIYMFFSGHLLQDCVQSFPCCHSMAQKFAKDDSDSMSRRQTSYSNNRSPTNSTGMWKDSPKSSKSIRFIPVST
Procedure: (1) V1 receptor binding assay
A rat liver membrane sample was prepared in accordance with the method of Nakamura et al. (J. Biol. Chem., 258, 9283 (1983)), and [^3 H]-Arg-vasopressin (2 nM, specific activity=75.8 Ci/mmol), 70 μg of the membrane sample and each drug to be tested (10^-8 to 10^-4 M) were incubated at 30° C. for 30 minutes in 250 μl of 100 mM Tris-HCl buffer (pH=8.0) containing 5 mM of magnesium chloride, 1 mM of ethylenediaminetetraacetic acid (EDTA) and 0.1% of bovine serum albumin (BSA). Thereafter, the incubation solution was sucked off using a cell harvester and free ligand and excess buffer were removed by passing the reaction mixture through a glass filter (GF/B), thereby trapping receptor-bound labeled ligand on the glass filter. The glass filter was taken out, thoroughly dried and then mixed with a liquid scintillation cocktail, and the amount of the membrane-bound [^3 H]-vasopressin was measured using a liquid scintillation counter to calculate the inhibition ratio by the following formula. [formula] C1 : amount of [^3 H]-vasopressin bound to the membrane in the coexistence of known amount of each drug to be tested and [^3 H]-vasopressin
C0 : amount of [^3 H]-vasopressin bound to the membrane when the drug to be tested was not added
B1 : amount of [^3 H]-vasopressin bound to the membrane in the presence of excess vasopressin (10^-6 M)
[formula] [L]: concentration of radioactive ligand KD: dissociation constant calculated from Scatchard plot
Negative logarithm of the thus calculated Ki value was used as pKi value.

[2] = biological target: arginine vasopressin V2 receptor (Oryctolagus cuniculus, UniProt G1TA00); assay: V2 receptor binding assay ([3H]-Arg-vasopressin, rabbit renal medulla membrane); conditions: for Binding activity on arginine vasopressin V2 receptor (pKi): rabbit renal medulla membrane, [3H]-Arg-vasopressin 2 nM
Sequence of arginine vasopressin V2 receptor (G1TA00 78-446): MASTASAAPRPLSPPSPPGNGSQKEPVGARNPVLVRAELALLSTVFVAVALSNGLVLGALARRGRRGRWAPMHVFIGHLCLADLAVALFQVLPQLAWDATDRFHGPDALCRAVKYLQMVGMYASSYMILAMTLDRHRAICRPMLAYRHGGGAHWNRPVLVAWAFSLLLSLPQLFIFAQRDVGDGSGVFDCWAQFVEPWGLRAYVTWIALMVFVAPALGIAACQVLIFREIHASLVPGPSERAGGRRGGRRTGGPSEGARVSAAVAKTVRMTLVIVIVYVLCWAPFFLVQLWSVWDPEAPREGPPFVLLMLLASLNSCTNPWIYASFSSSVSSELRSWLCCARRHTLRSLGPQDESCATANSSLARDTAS

[3] = rat liver membrane, [3H]-Arg-vasopressin 2 nM, 30° C., 30 minutes, pH 8.0, read-out: Binding activity on arginine vasopressin V1 receptor (pKi) (converted)
[4] = compared with OPC-31260 and OPC-21268

With `O=C(/C=C1/c2ccccc2N(C(=O)c2ccc(NC(=O)c3ccccc3-c3ccccc3)cc2)CCC1(F)F)NCc1ccccc1` [Example 127, (Z)-4'-[[4,4-difluoro-5-[(N-benzylcarbamoyl)methylene]-2,3,4,5-tetrahydro-1H-1-benzazepin-1-yl]carbonyl]-2-phenylbenzanilide] as the compound, how does the Ki [1, 3] read?
The Ki was 1740 pM.

And the “Binding activity on arginine vasopressin V2 receptor (pKi)” value (shortened to “Binding activity”) [2]?
The value was 8.19.

For `CCNC(=O)/C=C1/c2ccccc2N(C(=O)c2ccc(NC(=O)c3ccccc3-c3ccccc3)cc2)CCC1(F)F` [Example 123, (Z)-4'-[[5-(N-ethylcarbamoylmethylene)-4,4-difluoro-2,3,4,5-tetrahydro-1H-1-benzazepin-1-yl]carbonyl]-2-phenylbenzanilide], which Ki [1, 3] is on record?
Its Ki is 200 pM.

And the “Binding activity” value [2]?
The value was 9.16.

Which results are given for `CN(C)C1CCN(C(=O)/C=C2/c3ccccc3N(C(=O)c3ccc(NC(=O)c4cccc(Cl)c4)cc3)CCC2(F)F)CC1.Cl` [Example 96, (Z)-3-chloro-4'-[[4,4-difluoro-5-[[(4-dimethylaminopiperidino)carbonyl]methylene]-2,3,4,5-tetrahydro-1H-1-benzazepin-1-yl]carbonyl]benzanilide hydrochloride]?
Ki [1, 3]: 2000 pM; Binding activity on arginine vasopressin V2 receptor (pKi) [2]: 8.13

With `Cc1ccsc1C(=O)Nc1ccc(C(=O)N2CCC(F)(F)/C(=C\C(=O)N3CCC(N(C)C)CC3)c3ccccc32)cc1` [Example 111, (Z)-N-[4-[[4,4-difluoro-5-[[(4-dimethylaminopiperidino)carbonyl]methylene]-2,3,4,5-tetrahydro-1H-1-benzazepin-1-yl]carbonyl]phenyl]-3-methylthiophene-2-carboxyamide hydrochloride] as the compound, how does the Ki [1] read?
The Ki was 562 pM.

And the “Binding activity” value [2]?
Its value is 7.79.

`Cc1ccoc1C(=O)Nc1ccc(C(=O)N2CCC(F)(F)/C(=C\C(=O)N3CCC(N(C)C)CC3)c3ccccc32)cc1` [Example 113, (Z)-N-[4-[[4,4-difluoro-5-[[(4-dimethylaminopiperidino)carbonyl]methylene]-2,3,4,5-tetrahydro-1H-1-benzazepin-1-yl]carbonyl]phenyl]-3-methyl-2-furancarboxyamide hydrochloride] was tested. Which Ki [1] did it give?
Its Ki is 263 pM.

What about the “V1 selectivity (in words)” value ([1]; V1 versus V2 receptor binding) of the same compound?
The value was “excellent in V1 selectivity”.

And the “V1 receptor antagonism compared with OPC-21268 (in words)” value ([1]; versus OPC-21268)?
The value was “markedly stronger V1 receptor antagonism than that of OPC-21268”.

And the “Binding activity” value [2]?
The value was 7.50.

Which Ki [1, 3] does the source give for `Cl.O=C(Nc1ccc(C(=O)N2CCC(F)(F)/C(=C\CN3CCCC3)c3ccccc32)cc1)c1ccccc1-c1ccccc1` [Example 81, (Z)-4'-[[4,4-difluoro-5-[2-(1-pyrrolidinyl)ethylidene]-2,3,4,5-tetrahydro-1H-1-benzazepin-1-yl]carbonyl]-2-phenylbenzanilide hydrochloride] here?
The Ki was 724 pM.

What about the “Binding activity” value [2] of the same compound?
Its value is 8.64.

Which results are given for `O=C(Nc1ccc(C(=O)N2CCC(F)(F)/C(=C\C(=O)N3CCC(N4CCCCC4)CC3)c3ccccc32)cc1)c1ccccc1-c1ccccc1` [Example 83, (Z)-4'-[[4,4-difluoro-5-[[(4-piperidinopiperidino)carbonyl]piperidyl)carbamoyl]methylene]-2,3,4,5-tetrahydro-1H-1-benzazepin-1-yl]carbonyl]-2-phenylbenzanilide hydrochloride]?
Ki [1, 3]: 234 pM; Binding activity on arginine vasopressin V2 receptor (pKi) [2]: 8.47

Which results are given for `Cl.O=C(/C=C1/c2ccccc2N(C(=O)c2ccc(NC(=O)c3ccccc3-c3ccccc3)cc2)CCC1(F)F)NC1CN2CCC1CC2` (racemic) [Example 85, (±)-(Z)-4'-[[4,4-difluoro-5-[[N-(3-quinuclidinyl)carbamoyl]methylene]-2,3,4,5-tetrahydro-1H-1-benzazepin-1-yl]carbonyl]-2-phenylbenzanilide hydrochloride]?
antagonism on V1 receptor (in words) [1, 4]: excellent antagonisms on both V1 and V2 receptors; Ki [1, 3]: 95.5 pM; antagonism on V2 receptor (in words) [2, 4]: excellent antagonisms on both V1 and V2 receptors; Binding activity on arginine vasopressin V2 receptor (pKi) [2]: 9.97
